Data reported in the NIST ThermoML archive (doi:10.1016/j.jct.2016.12.007).
Numbers after ± are expanded uncertainties.

Legend:
[1] = refractive index (Na D-line) (dimensionless); wn = mass fraction of the nth substance listed; conditions: 101.3 kPa, Liquid, Standard Abbe refractometry
[2] = wn = mass fraction of the nth substance listed; conditions: 101.3 kPa, Liquid, Vibrating tube method

Row | SMILES | refractive index ([1]; 288.15 K, w1 = 0.2622) | refractive index ([1]; 298.15 K, w1 = 0.2625) | refractive index ([1]; 308.15 K, w1 = 0.2666) | mass density ([2]; 288.15 K, w1 = 0.2622) | mass density ([2]; 298.15 K, w1 = 0.2625) | mass density ([2]; 308.15 K, w1 = 0.2666) | refractive index ([1]; 288.15 K, w1 = 0.4695) | refractive index ([1]; 298.15 K, w1 = 0.4841) | refractive index ([1]; 308.15 K, w1 = 0.5041) | mass density ([2]; 288.15 K, w1 = 0.4695) | mass density ([2]; 298.15 K, w1 = 0.4841) | mass density ([2]; 308.15 K, w1 = 0.5041)
1 | [Cl-].[Na+] [sodium chloride] + O | 1.3811 ± 0.0005 | 1.3795 ± 0.0005 | 1.3781 ± 0.0005 | 1201 ± 4.2 kg/m3 | 1197.8 ± 4.2 kg/m3 | 1193.6 ± 4.2 kg/m3 | – | – | – | – | – | –
2 | [Cl-].[Rb+] [rubidium chloride] + O | – | – | – | – | – | – | 1.3874 ± 0.0005 | 1.3883 ± 0.0005 | 1.3894 ± 0.0005 | 1480.4 ± 4.3 kg/m3 | 1500.3 ± 4.3 kg/m3 | 1517.5 ± 4.3 kg/m3
